Measurements as given in patent US9243062B2, “Peptides for treatment and diagnosis of autoimmune disease” (priority 2005, dated 2016).
No end group written: not given here.

Columns and labels:
[1] = tested on: human pancreatic α cells; experiment: Fluorescence microscopy: binding of biotinylated homodimer CDR peptides to human pancreatic α cells; type: cell-based; settings: biotinylated homodimers; fluoresceinated antibiotin as second step reagent
Protocol: (§1) An N terminal cysteine was added to each of the hypervariable region sequences (CDR-L1-3 and CDR-H1-3, SEQ ID NOs:6 to 16) which were synthesised by Fmoc peptide synthesis and dimerised to form homodimers. Some of each of the homodimers was biotinylated; the biotinylated homodimers were then tested by fluorescence microscopy for their ability to bind to human pancreatic a cells (used as an indicator human tissue) by using fluoresceinated antibiotin as a second step reagent. […] The non-biotinylated homodimer peptides were then tested by ELISAs for their ability to bind to anti-TCR Vβ antibody and to cardiolipin as an indicator of phospholipids (Table 1).

[2] = tested on: anti-TCR Vβ antibody; experiment: ELISA binding to anti-TCR Vβ antibody; settings: plate coated with homodimer peptide; for Optical density reading, ELISA, antigen α-TCRVβ antibody: tested against α-TCR Vβ, mean ± SD, three observations; for Ratio Test/Control: α-TCRVβ antibody vs PBS/culture medium control
Protocol: as §1

[3] = ELISA binding to cardiolipin as an indicator of phospholipids; settings: for Ratio Test/Control: cardiolipin vs ethyl alcohol control; for Optical density reading, ELISA, antigen cardiolipin: plate coated with cardiolipin in ethyl alcohol, tested against antibody or homodimer peptide, mean ± SD, three observations
Protocol: as §1

[4] = Phase IIb randomised double blind trial in type 2 diabetics after stopping antidiabetic medication; type: in vivo, human
Protocol: 31 subjects (21 males and 10 females) with type 2 diabetes mellitus on one or more oral antidiabetic medication(s) were entered into a randomised double blind study of 16 weeks duration. At day 01 all antidiabetic medication was stopped. Patients were randomised to either the placebo group (group C) or one of 3 treatment groups described as Groups A, B or D. All groups received a total of 4 IM injections spaced one week apart starting from day 01. The placebo group (8 subjects) received 1.2 ml of saline containing 0.1% alhydrogel. Group A (7 subjects) received 1.51 mg of a peptide according to the invention (designated as NDX-71 herein) in 1.2 ml saline containing 0.1% alhydrogel. Group B (8 subjects) received 0.86 mg NDX-71 in 1.2 ml saline containing 0.1% alhydrogel. Group D (8 subjects) received a mixture of 3 peptides of the invention (0.92 mg NDX-71, 0.68 mg C80 and 0.71 mg F90) in 1.2 ml saline containing 0.1% alhydrogel. Placebo and study medications were visibly identical. The NDX-71 peptide used in this example was the B71 peptide used in Example 6. The C80 and F90 peptides used in this example were the C80 and F90 peptides used in Example 6.
At regular intervals throughout the study period patients underwent blood tests for clinical safety and glycaemic efficacy parameters. […] Clinical safety parameters in all groups were unchanged from baseline. There were no adverse events reported in the study attributable to the test substances.

| Substance | ability to bind to human pancreatic α cells [1] | Optical density reading, ELISA, antigen α-TCRVβ antibody [2] | Ratio Test/Control [2] | Ratio Test/Control [3] | Optical density reading, ELISA, antigen cardiolipin [3] | glycaemic control after cessation of antidiabetic medication ([4]; 1.51 mg dose) | dose dependence of effect ([4]; 1.51 mg vs 0.86 mg) | HbA1c, treatment difference vs placebo (group C) ([4]; 21 male volunteers subset, high dose group A (1.51 mg), p<0.001) | corrected fructosamine, treatment difference vs placebo (group C) ([4]; 21 male volunteers subset, high dose group A (1.51 mg), p=0.001) | fasting glucose, treatment difference vs placebo (group C) ([4]; 21 male volunteers subset, high dose group A (1.51 mg), p=0.005) | mean HbA1c level ([4]; baseline, high dose treatment group (1.51 mg NDX-71)) | mean HbA1c level ([4]; day 113, high dose treatment group (1.51 mg NDX-71)) | HbA1c levels over time vs placebo group ([4]; high dose treatment group (1.51 mg NDX-71), p=0.02) | glycaemic control compared with placebo ([4]; lower dose of 0.86 mg) |
| --- | --- | --- | --- | --- | --- | --- | --- | --- | --- | --- | --- | --- | --- | --- |
| CDR-H3: homodimer of CDR-H3 derived monomer peptides, each SEQ ID NO:10 (LRGLLPDY) plus an N terminal cysteine (SEQ ID NO:160) (chain 1 CLRGLLPDY; chain 2 CLRGLLPDY; cysteine pairing not given here; also: homodimer) | bound to the pancreatic α cells | 0.182 ± 0.009 | 2.00 | 2.16 | 0.132 ± 0.009 | – | – | – | – | – | – | – | – | – |
| CDR-L3 (QQYNSYPLT; Protein Light chain HV3) | bound to the pancreatic α cells | 0.243 ± 0.008 | 1.74 | 2.23 | 0.254 ± 0.012 | – | – | – | – | – | – | – | – | – |
| NDX-71: homodimer of CDR-H2 derived monomer peptides, each SEQ ID NO:8 (NIYPSDSYTNYNQKFKD) plus an N terminal cysteine (SEQ ID NO:159) (chain 1 CNIYPSDSYTNYNQKFKD; chain 2 CNIYPSDSYTNYNQKFKD; cysteine pairing not given here; also: homodimer) | bound to the pancreatic α cells | 0.307 ± 0.018 | 1.83 | 2.40 | 0.151 ± 0.020 | able to maintain good glycaemic control | dose response effect | Statistically significant treatment differences | Statistically significant treatment differences | Statistically significant treatment differences | 6.3% | 6.9% | significantly different from the placebo group | showed improvement as compared with placebo |
